Data set [1] in a line: in vivo. In kind it is in vivo. Particulars: mouse, in vivo, po; mice, LD50/writhing ID50; read-out: TI (therapeutic index). Here is the method: (§1) Between the 5th and 10th minute after the administration of acetic acid total number of the typical writhing reactions was counted, and expressed as percentage of the control. The experiments were performed in groups of at least 12 mice; measurements were done 60 min. after oral application of the test compounds.

Data set [2] deals with acetic-acid writhing reactions in mice. As to the kind of experiment: animal or person. It counts as in vivo. To be noted: Mus musculus, po, 1 h, read-out: Writhing test ID50. Here is the method:
as §1
(Writhing tests count abdominal constrictions after an irritant is injected.)

Data set [3] relates to brewer's yeast induced fever in rats. The experiment in a line: Antipyretic activity in rats (brewer's yeast fever). In kind it is in vivo, Wistar rats. As for the experimental part: The experiments were performed in groups of 10 Wistar rats of both sexes weighing 160-200 g. Fever was induced by 20% brewer's yeast suspended in 0.9% saline solution, applied subcutaneously in a volume of 2 ml/rat distributed at various sites of the back. After 18 hours the test compound or the vehicle was administered in a volume of 10 ml/kg p.o. During this period the rats were fasted but received drinking water ad libitum. The rectal temperature of the animals was measured with a Thermotest thermometer 2 days before injection of the fever inducer, then before the application of the test compound and after treatment in every 60th min. Animals with increase in body temperature less than 0.8° C. were excluded. The results were evaluated according to the statistical method of Duncan.

A short description of data set [4]: in vivo. To be noted: mouse, po. As for the experimental part: The observation period after treatment lasted for 14 days.
Statistical evaluation was carried out as described by Litchfield-Wilcoxon's method.

The test system of data set [5] is carrageenin-induced oedema in rats. The experiment in a line: Carrageenin-induced oedema test in rats. It counts as in vivo. To be noted: 3 h after carrageenin. Here is the method: Inhibitory activity in carrageenin-induced oedema test was assessed in rats using the technique of Winter at al. (1962). Carageenin (0.1 ml of 1.0% solution) was injected into the plantar surface of the hind paw of rats weighing 130-160 g. Rats were fasted for 12 hours and received drinking water ad libitum. One hour before treatment with the test compound animals were hydrated orally with 30 ml/kg of tap water. The test compounds or the vehicle were administered p.o. in a volume of 10 ml/kg, then two hours later carrageenin was applied. The paw volume was determined in a plethysmometer prior to and 3 hours after administration of the irritant.
(In general: In the carrageenan paw model, swelling and tenderness develop within hours.)

For data set [6], the system named is PHA stimulated granulocytes. The experiment in a line: Chemiluminescence of PHA stimulated granulocytes. It counts as cell-based, human (healthy volunteers). To be noted: Homo sapiens, read-out: IC50, chemiluminescence of PHA stimulated granulocytes. Here is the method:
(§2) Heparinized blood (10 IU/ml) was taken from healthy volunteers. The blood diluted with equal volume of dextran, the white blood cells were separated by sedimentation. The granulocytes were separated by Uromio gradient. […] The cell suspension was put in dark box for 15 min. Luminol was dissolved in concentrated NH4 OH and diluted in the following solution:
(§3) 50 ml Tris-Parker medium (containing 1.2 g Tris, pH=7.4)
(§4) 4 ml glucose 40% w/v in water
(§5) The Luminol solution (500 μl) was measured in plastic vials and put in dark (37° C.). The reaction was started by addition of the cells and stimulating agent (Phytohaemaglutinin-PHA 10 μg/ml).
(§6) The vials were continuously and gently shaken and the PHA stimulation was measured in every 2.5 min. for 15 min. in a Beckmann LS-100 spectrometer (coincidence switched off). The percentage of the counts measured was calculated in comparison with the solvent treated control cells. At least 5 concentrations of each compound were investigated in at least 3 parallels.

The test system of data set [7] is gastric secretion in rats. The experiment in a line: Effect on gastric secretion in rats (Shay, pylorus ligation). Particulars: for Gastric juice / Free acid content / Total acid content: per 100 g body weight; for Free acid content / Total acid content: titration with 0.1 N NaOH. In kind it is in vivo, Wistar rats. Here is the method: The experiments were carried out following the surgical method of Shay et al. (1946). Fasted Wistar rats weighing 200-250 g were used. During a 48 hours, starving period rats received drinking water ad libitum. The experimental groups consisted of 4 males and 4 females.
On the day of experiment the pylorus of rats was ligated under ether anaesthesia. […] The control groups were treated simultaneously with identical volumes of vehicle in identical route of administration.
Four hours after operation rats were killed with ether, their stomach was removed after cardia ligature, the stomach contents were separated and after centrifugation the volume of the gastric juice was measured. The free acid and total acid content were assayed by titration with 0.1 N NaOH.
The results were individually transformed for 100 g body weight and statistically evaluated by Wilcoxon's method.

For data set [8], the system named is acetic acid writhing reactions in rats. The experiment in a line: Writhing test in rats (acetic acid). Particulars: Rattus norvegicus, po, 1 h, read-out: Writhing test ID50. As for the experimental part:
(§7) Five minutes after treatment with acetic acid, total number of characteristic writhing reactions was counted for 10 minutes and expressed as percentage of the control group.

Data set [9] deals with adjuvant arthritis in rats. As to the kind of experiment: Adjuvant arthritis in rats. It counts as in vivo, Long Evans rats. Particulars: for Paw swelling, % Right: injected right hindpaw, day 10 (primary response); for % inhibition Left: left hindpaw, secondary response; for % inhibition Right: right hindpaw, primary response; for Paw swelling, % Left: uninjected left hindpaw, day 15 (secondary response).

The nature of data set [10]: Chemiluminescence induced by H2O2 in cell free medium.
For another data set, the system named is gastric mucosa of rats. The experiment in a line: Measurement of ulcerogenic activity. In kind it is in vivo.
The subject of a further data set is Wistar rats. To be noted: from Barron et al. 1968, 20160 min; cited from earlier work.
Data set [11] can be described thus: Writhing test in rats (acetic acid). Particulars: rat, in vivo, po. As for the experimental part:
as §7

The test system of the next data set is mononuclear cells. The experiment in a line: Chemiluminescence of PHA stimulated mononuclear cells. In kind it is cell-based, human (healthy volunteers). Here is the method:
as §2, §3, §4, §5, §6

The mark [12] stands for this setting: 200 mg/kg p.o., 1 hour following treatment.
The mark [13] stands for this setting: 200 mg/kg p.o., 3 hours following treatment.
Where [14] appears, read: 200 mg/kg p.o., 5 hours following treatment.

Usually LD50 stands for the dose at which mortality reaches 50%. By IC50 is commonly meant the concentration that gives 50% inhibition. The term inhibition denotes the relative decrease from the control value, in per cent.

Molecules are shown by their SMILES. Like-named read-outs stand apart in the source and are kept apart here. Where only a bound is given, the exact number is not on record here.

As to `CC(=O)Oc1ccccc1C(=O)O` [Acetylsalicylic acid], the selectivity ratio in “in vivo [1]” amounted to 5.2. Also, the ED50 in data set [2] was 261 mg/kg. For the same compound, the results for the “Decrease in body temperature” value in data set [3] (setting [12]), in [3] (setting [13]) and in data set [3] (setting [14]) were 0.7 °C, 1.0 °C and 1.0 °C, respectively. This compound also yielded a 50% lethal dose (LD50) at 336 h in the data set “in vivo [4]” of 1350 mg/kg. Further, the “% inhibition of carrageenin-induced oedema” value in data set [5] (100 mg/kg p.o.) is on record as 29.5%.
As to `Cc1c(N(C)C)c(=O)n(-c2ccccc2)n1C` [Amidazophen, 1-phenyl-2,3-dimethyl-4-dimethylamino-pyrazolone-5, reference compound], the “Decrease in body temperature” value in data set [3] (setting [12]) was found to be 2.7 °C; in data set [3] (setting [13]), 2.3 °C; in data set [3] (setting [14]), 1.7 °C.
Turning to `COc1ccc(Cc2cnc(N)nc2N)cc1OC` [Compound A, 2,4-diamino-5-(3,4-dimethoxybenzyl)-pyrimidine], the ED50 in data set [2] worked out at 141 mg/kg; in data set [8] it was 36 mg/kg. Moreover, in data set [6], the IC50 amounted to 0.1 µM. Besides, the “Antipyretic activity (in words)” value in [3] is “significant antipyretic activity”. Also, the “Decrease in body temperature” value worked out at 1.5 °C in data set [3] (100 mg/kg p.o., 1 hour following treatment); 2.0 °C in data set [3] (100 mg/kg p.o., 3 hours following treatment); 1.7 °C in [3] (100 mg/kg p.o., 5 hours following treatment); 1.5 °C in [3] (setting [12]); 2.4 °C in [3] (setting [13]); 1.6 °C in data set [3] (setting [14]). For the same compound, the results for the Gastric juice in [7] (250 mg/kg orally), in data set [7] (500 mg/kg orally) and in [7] (1000 mg/kg orally) were 3.01 mL, 2.93 mL and 2.23 mL, respectively. Further, the Free acid content was 2.17 mL in data set [7] (250 mg/kg orally), 2.18 mL in [7] (500 mg/kg orally) and 1.24 mL in [7] (1000 mg/kg orally). Further, the Total acid content amounted to 4.33 mL in data set [7] (250 mg/kg orally), 4.40 mL in data set [7] (500 mg/kg orally) and 3.18 mL in data set [7] (1000 mg/kg orally). The inhibition at 250 mg/kg in [7] (Rattus norvegicus, 250 mg/kg, + = increase, - = decrease, read-out: % inhibition compared to the control, Gastric juice) amounted to 17.3%; in data set [7] (Rattus norvegicus, 250 mg/kg, read-out: % inhibition compared to the control, Total acid content), 11.8%. Moreover, the Percent change from control (+ = increase, - = decrease) at 250 mg/kg in [7] (Rattus norvegicus, 250 mg/kg, read-out: % inhibition compared to the control, Free acid content) is -23%. The inhibition at 500 mg/kg in [7] (Rattus norvegicus, 500 mg/kg, + = increase, - = decrease, read-out: % inhibition compared to the control, Gastric juice) stood at 15.2%; in data set [7] (Rattus norvegicus, 500 mg/kg, read-out: % inhibition compared to the control, Total acid content) it was 16.5%. Also, the Percent change from control (+ = increase, - = decrease) at 500 mg/kg in data set [7] (Rattus norvegicus, 500 mg/kg, read-out: % inhibition compared to the control, Free acid content) is -19.1%. For the same compound, the inhibition at 1000 mg/kg in [7] (Rattus norvegicus, 1000 mg/kg, + = increase, - = decrease, read-out: % inhibition compared to the control, Gastric juice) was -14%; in [7] (Rattus norvegicus, 1000 mg/kg, read-out: % inhibition compared to the control, Total acid content), -20.1%. Further, in data set [7] (Rattus norvegicus, 1000 mg/kg, p < 0.05, read-out: % inhibition compared to the control, Free acid content), the Percent change from control (+ = increase, - = decrease) at 1000 mg/kg is -58.1%. For the same compound, in data set [7] (doses 250-1000 mg/kg), the “Effect on gastric secretion (in words)” value is “did not change the gastric secretion except in very high doses”. Also, the “% inhibition of carrageenin-induced oedema” value in data set [5] (125 mg/kg p.o.) is reported as 42.0%. In addition, the “Paw swelling, % Right” value in data set [9] (100 mg/kg p.o. once daily) was determined as 56.9%. The “% inhibition Left” value in data set [9] (100 mg/kg p.o. once daily) is reported as -47.1%. Also, the “% inhibition Right” value in data set [9] (100 mg/kg p.o. once daily) is -51.4%. For the same compound, in data set [9] (100 mg/kg p.o. once daily), the “Paw swelling, % Left” value stood at 38.5%. For the same compound, the “Influence on chemiluminescence induced by H2O2” value in data set [10] is on record as “did not influence”.
Turning to `COc1ccc2c(c1)c(CC(=O)O)c(C)n2C(=O)c1ccc(Cl)cc1` [Indomethacin, 1-(p-chloro-benzoyl)-5-methoxy-2-methyl-1H-indole-3-acetic acid], the Ulcus-index with gastric mucosa of rats (5 mg/kg orally 6 and 16 h before decapitation) is recorded as 0.2; in the data set with gastric mucosa of rats (10 mg/kg orally 6 and 16 h before decapitation), 1.2; in the data set on gastric mucosa of rats (20 mg/kg orally 6 and 16 h before decapitation), 3.0. Further, the “Effect on ulcus-index (in words)” value in the data set with gastric mucosa of rats (oral, over the doses of Table 4) is “increases does dependently the ulcus-index”. Also, the IC50 in [6] is above 100 µM. Also, the LD50 in the data set with Wistar rats was 25.5 mg/kg. The selectivity ratio in [11] came out at 5.4. The ED50 in [8] was 4.7 mg/kg. Besides, the “% inhibition of carrageenin-induced oedema” value in data set [5] (1 mg/kg p.o.) is given as 40.3%.
In the case of `CC(=O)Nc1ccc(O)cc1` [Paracetamol, 4-hydroxy-acetanilide], the ED50 in data set [2] was 180 mg/kg.
Take `CCCCC1C(=O)N(c2ccccc2)N(c2ccccc2)C1=O` [Phenylbutazone, 3,5-dioxo-1,2-diphenyl-4-(n-butyl)-pyrazolidine]: the ED50 in data set [2] is 100 to 200 mg/kg. In data set [6] (PHA 10 μg/ml, Luminol 32 μM), the IC50 turned out to be 100 µM. For the same compound, the “Activity on chemiluminescence in mononuclear cells” value with mononuclear cells is “inactive”. For the same compound, the ED50 in data set [8] was 19.7 mg/kg. The “% inhibition of carrageenin-induced oedema” value in [5] (25 mg/kg p.o.) stood at 56.6%. In [9] (30 mg/kg p.o. once daily), the “Paw swelling, % Right” value was found to be 94.6%; the “% inhibition Left” value is listed as -49.6%; the “% inhibition Right” value is given as -19.2%; the “Paw swelling, % Left” value is given as 36.7%.
Take `CN1C(C(=O)Nc2ccccn2)=C(O)c2ccccc2S1(=O)=O` [Piroxicam, 4-hydroxy-2-methyl-N-2-pyridyl-2H-1,2-benzothiazine-3-carboxamide-1,1-dioxide]: the IC50 in data set [6] (PHA 10 μg/ml, Luminol 32 μM) was 100 µM. For the same compound, in the data set on mononuclear cells, the “Activity on chemiluminescence in mononuclear cells” value was “inactive”.

The values are drawn from patent publication US4873249A, “Pharmaceutical composition” (EGIS Gyogyszergyar, priority 1986, dated 1989).
